Results from patent US20020137929A1, “1 - (3-heterocyclylphenyl) isothiourea, -isourea, -guanidine and -amidine herbicidal agents” (Intellectual Property Department, BASF Aktiengesellschaft, priority 1998, published 2002).

Columns and labels:
CYPIR (Rice Flatsedge) = test: Postemergence weed control under flooded paddy conditions; assay type: in vivo, Cyperus iria; details: postemergence weeds, 3-4 weeks after treatment
Summary of the method: (§1)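 Weeds 3 to 5 cm tall and rice seedlings at the 1.5 to 2.5 leaf stage were flooded, with water held 1.5 to 3 cm above the soil. Compounds in 50/50 v/v aqueous/acetone went into the flood water at about 0.0313 to 0.500 kg/ha. Visual 0-9 ratings versus control were made 3 to 4 weeks later.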

[1] = tested on: SAGPY (Arrowhead (Pygmaea)); test: Preemergence weed control under flooded paddy conditions; assay type: in vivo, Sagittaria pygmaea; details: rated 3-4 weeks after treatment
Summary of the method: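 Ratings on a 0-9 visual scale cover stand, vigor, malformation, size, chlorosis and overall appearance relative to a control, taken three to four weeks post-treatment. Application was into flood water over freshly sown silt loam at roughly 0.0313 to 0.500 kg/ha.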

ABUTH (Velvetleaf) [2] = test: Preemergence herbicidal evaluation; assay type: in vivo, Abutilon theophrasti; details: rated 4-5 weeks after treatment
Summary of the method: (§2)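 Seeds were planted in potting soil in cups, then sprayed preemergence with the test compound in aqueous acetone at about 0.0156 to 0.500 kg per hectare. Cups were kept under greenhouse conditions and visually rated 4–5 weeks after treatment on a 0–9 scale against an untreated control.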

[3] = tested on: GLXMAW (Soybean, Williams); test: Postemergence herbicidal evaluation; assay type: in vivo, Glycine max, (L.) Merr. cv Williams
Summary of the method: (§3)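 Herbicidal effect was judged by eye on a 0–9 scale covering stand, vigor, deformity, size and chlorosis, compared with controls, four to five weeks after seedlings about two weeks old were sprayed (40 psi, ~0.0156–0.500 kg/ha).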

ORYSAT (Rice, Tebonnet) = test: Postemergence herbicidal evaluation; assay type: in vivo, Oryza sativa, (L.) Tebonnet
Summary of the method: as §3

AMBEL (Ragweed, Common) = test: Postemergence herbicidal evaluation; assay type: in vivo, Ambrosia artemisifolia
Summary of the method: as §3

CASOB (Sicklepod) = test: Preemergence herbicidal evaluation; assay type: in vivo, Cassia obtusifolia; details: rated 4-5 weeks after treatment
Summary of the method: as §2

ECHCG (Barnyardgrass) = test: Postemergence herbicidal evaluation; assay type: in vivo, Echinochloa crus-galli
Summary of the method: as §3

SETVI (Foxtail, Green) [4] = test: Postemergence herbicidal evaluation; assay type: in vivo, Setaria viridis
Summary of the method: as §3

SETVI (Foxtail, Green) [5] = test: Preemergence herbicidal evaluation; assay type: in vivo, Setaria viridis; details: rated 4-5 weeks after treatment
Summary of the method: as §2

[6] = tested on: TRZAWR (Wheat, Winter, cv Riband); test: Postemergence herbicidal evaluation; assay type: in vivo, Triticum aestivum
Summary of the method: as §3

[7] = tested on: SAGPY (Arrowhead (Pygmaea)); test: Postemergence weed control under flooded paddy conditions; assay type: in vivo, Sagittaria pygmaea; details: postemergence weeds, 3-4 weeks after treatment
Summary of the method: as §1

ABUTH (Velvetleaf) [8] = test: Postemergence herbicidal evaluation; assay type: in vivo, Abutilon theophrasti
Summary of the method: as §3

CCOP(=O)(CN1C(=O)CSC1=Nc1cc(-n2c(=O)cc(C(F)(F)F)n(C)c2=O)c(F)cc1Cl)OCC [Compound 35, Diethyl {{2-{{2-chloro-5-[3,6-dihydro-3-methyl-2,6-dioxo-4-(trifluoromethyl)-1(2H)-pyrimidinyl]-4-fluorophenyl}imino}-4-oxo-3-thiazolidinyl}methyl}phosphonate]
0.0: Herbicidal rating CYPIR (CYPIR (Rice Flatsedge); rate 0.1250 kg/ha) | Herbicidal rating CYPIR (CYPIR (Rice Flatsedge); rate 0.2500 kg/ha) | Herbicidal rating SAGPY ([1]; 0.1250 kg/ha) | Preemergence herbicidal rating CASOB (CASOB (Sicklepod); rate 0.0625 kg/ha) | Preemergence herbicidal rating CASOB (CASOB (Sicklepod); rate 0.1250 kg/ha) | Postemergence herbicidal rating ECHCG (ECHCG (Barnyardgrass); Rate 0.0158 kg/ha) | Postemergence herbicidal rating ECHCG (ECHCG (Barnyardgrass); Rate 0.0315 kg/ha) | Postemergence herbicidal rating SETVI (SETVI (Foxtail, Green) [4]; Rate 0.0158 kg/ha) | Preemergence herbicidal rating SETVI (SETVI (Foxtail, Green) [5]; rate 0.0625 kg/ha) | Preemergence herbicidal rating SETVI (SETVI (Foxtail, Green) [5]; rate 0.1250 kg/ha) | Herbicidal rating SAGPY ([7]; rate 0.1250 kg/ha)
3.0: Herbicidal rating SAGPY ([1]; 0.2500 kg/ha) | Postemergence herbicidal rating ORYSAT (ORYSAT (Rice, Tebonnet); Rate 0.0315 kg/ha) | Preemergence herbicidal rating CASOB (CASOB (Sicklepod); rate 0.2500 kg/ha) | Postemergence herbicidal rating TRZAWR ([6]; Rate 0.0315 kg/ha) | Herbicidal rating SAGPY ([7]; rate 0.2500 kg/ha)
7.5: Postemergence herbicidal rating GLXMAW ([3]; Rate 0.0315 kg/ha)
9.0: Preemergence herbicidal rating ABUTH (ABUTH (Velvetleaf) [2]; rate 0.0625 kg/ha) | Preemergence herbicidal rating ABUTH (ABUTH (Velvetleaf) [2]; rate 0.1250 kg/ha) | Preemergence herbicidal rating ABUTH (ABUTH (Velvetleaf) [2]; rate 0.2500 kg/ha) | Postemergence herbicidal rating GLXMAW ([3]; Rate 0.0630 kg/ha) | Postemergence herbicidal rating AMBEL (AMBEL (Ragweed, Common); Rate 0.0158 kg/ha) | Postemergence herbicidal rating AMBEL (AMBEL (Ragweed, Common); Rate 0.0315 kg/ha) | Postemergence herbicidal rating AMBEL (AMBEL (Ragweed, Common); Rate 0.0630 kg/ha) | Preemergence herbicidal rating SETVI (SETVI (Foxtail, Green) [5]; rate 0.2500 kg/ha) | Postemergence herbicidal rating ABUTH (ABUTH (Velvetleaf) [8]; Rate 0.0158 kg/ha) | Postemergence herbicidal rating ABUTH (ABUTH (Velvetleaf) [8]; Rate 0.0315 kg/ha) | Postemergence herbicidal rating ABUTH (ABUTH (Velvetleaf) [8]; Rate 0.0630 kg/ha)
2.0: Postemergence herbicidal rating ORYSAT (ORYSAT (Rice, Tebonnet); Rate 0.0158 kg/ha) | Postemergence herbicidal rating SETVI (SETVI (Foxtail, Green) [4]; Rate 0.0315 kg/ha)
4.0: Postemergence herbicidal rating SETVI (SETVI (Foxtail, Green) [4]; Rate 0.0630 kg/ha)
3.5: Postemergence herbicidal rating ORYSAT (ORYSAT (Rice, Tebonnet); Rate 0.0630 kg/ha) | Postemergence herbicidal rating TRZAWR ([6]; Rate 0.0630 kg/ha)
1.0: Postemergence herbicidal rating ECHCG (ECHCG (Barnyardgrass); Rate 0.0630 kg/ha)
7.0: Postemergence herbicidal rating GLXMAW ([3]; Rate 0.0158 kg/ha)
2.5: Postemergence herbicidal rating TRZAWR ([6]; Rate 0.0158 kg/ha)

CCOC(=O)CN1CCSC1=Nc1cc(-n2nc(C)n(C(F)F)c2=O)c(F)cc1Cl [Compound 36]
6.0: Postemergence herbicidal rating ORYSAT (ORYSAT (Rice, Tebonnet); Rate 0.0630 kg/ha)
0.0: Herbicidal rating CYPIR (CYPIR (Rice Flatsedge); rate 0.0313 kg/ha) | Herbicidal rating SAGPY ([1]; 0.0313 kg/ha) | Herbicidal rating SAGPY ([1]; 0.0625 kg/ha) | Preemergence herbicidal rating CASOB (CASOB (Sicklepod); rate 0.0625 kg/ha) | Preemergence herbicidal rating CASOB (CASOB (Sicklepod); rate 0.2500 kg/ha) | Postemergence herbicidal rating ECHCG (ECHCG (Barnyardgrass); Rate 0.0158 kg/ha) | Preemergence herbicidal rating SETVI (SETVI (Foxtail, Green) [5]; rate 0.0625 kg/ha) | Herbicidal rating SAGPY ([7]; rate 0.0313 kg/ha) | Herbicidal rating SAGPY ([7]; rate 0.0625 kg/ha)
9.0: Herbicidal rating CYPIR (CYPIR (Rice Flatsedge); rate 0.2500 kg/ha) | Herbicidal rating SAGPY ([1]; 0.2500 kg/ha) | Preemergence herbicidal rating ABUTH (ABUTH (Velvetleaf) [2]; rate 0.0625 kg/ha) | Preemergence herbicidal rating ABUTH (ABUTH (Velvetleaf) [2]; rate 0.1250 kg/ha) | Preemergence herbicidal rating ABUTH (ABUTH (Velvetleaf) [2]; rate 0.2500 kg/ha) | Postemergence herbicidal rating AMBEL (AMBEL (Ragweed, Common); Rate 0.0630 kg/ha) | Postemergence herbicidal rating ECHCG (ECHCG (Barnyardgrass); Rate 0.0630 kg/ha) | Postemergence herbicidal rating SETVI (SETVI (Foxtail, Green) [4]; Rate 0.0315 kg/ha) | Postemergence herbicidal rating SETVI (SETVI (Foxtail, Green) [4]; Rate 0.0630 kg/ha) | Preemergence herbicidal rating SETVI (SETVI (Foxtail, Green) [5]; rate 0.1250 kg/ha) | Preemergence herbicidal rating SETVI (SETVI (Foxtail, Green) [5]; rate 0.2500 kg/ha) | Herbicidal rating SAGPY ([7]; rate 0.2500 kg/ha) | Postemergence herbicidal rating ABUTH (ABUTH (Velvetleaf) [8]; Rate 0.0158 kg/ha) | Postemergence herbicidal rating ABUTH (ABUTH (Velvetleaf) [8]; Rate 0.0315 kg/ha) | Postemergence herbicidal rating ABUTH (ABUTH (Velvetleaf) [8]; Rate 0.0630 kg/ha)
1.0: Postemergence herbicidal rating ORYSAT (ORYSAT (Rice, Tebonnet); Rate 0.0315 kg/ha)
3.5: Postemergence herbicidal rating TRZAWR ([6]; Rate 0.0630 kg/ha)
8.0: Postemergence herbicidal rating GLXMAW ([3]; Rate 0.0630 kg/ha)
5.0: Herbicidal rating CYPIR (CYPIR (Rice Flatsedge); rate 0.0625 kg/ha) | Herbicidal rating CYPIR (CYPIR (Rice Flatsedge); rate 0.1250 kg/ha) | Postemergence herbicidal rating GLXMAW ([3]; Rate 0.0158 kg/ha)
3.0: Herbicidal rating SAGPY ([1]; 0.1250 kg/ha) | Postemergence herbicidal rating AMBEL (AMBEL (Ragweed, Common); Rate 0.0315 kg/ha) | Postemergence herbicidal rating SETVI (SETVI (Foxtail, Green) [4]; Rate 0.0158 kg/ha) | Herbicidal rating SAGPY ([7]; rate 0.1250 kg/ha)
2.5: Postemergence herbicidal rating TRZAWR ([6]; Rate 0.0315 kg/ha)
0.5: Postemergence herbicidal rating ORYSAT (ORYSAT (Rice, Tebonnet); Rate 0.0158 kg/ha)
5.5: Postemergence herbicidal rating GLXMAW ([3]; Rate 0.0315 kg/ha)
1.5: Postemergence herbicidal rating TRZAWR ([6]; Rate 0.0158 kg/ha)
2.0: Postemergence herbicidal rating AMBEL (AMBEL (Ragweed, Common); Rate 0.0158 kg/ha) | Postemergence herbicidal rating ECHCG (ECHCG (Barnyardgrass); Rate 0.0315 kg/ha)
